Measurements reported in PubChem BioAssay (NCI).
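Grown in 96-well plates, cells were treated for 48 hours with each compound at five concentrations. Insufficient inhibition: endpoint recorded as highest concentration tested. Here, GI50 denotes the concentration required for 50% inhibition of growth. The concentration for full growth arrest is given as TGI.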

Key:
Assay in all cases: NCI tumour cell line growth inhibition, 48 h
RXF 393 renal = test system: RXF 393 renal
OVCAR-8 ovarian = test system: OVCAR-8 ovarian
BT-549 breast = test system: BT-549 breast
SF-268 CNS = test system: SF-268 CNS
A549 NSCLC = test system: A549 NSCLC
MOLT-4 leukemia = test system: MOLT-4 leukemia
SK-MEL-28 melanoma = test system: SK-MEL-28 melanoma
SK-MEL-5 melanoma = test system: SK-MEL-5 melanoma
DU-145 prostate = test system: DU-145 prostate
COLO 205 colon = test system: COLO 205 colon
IGROV1 ovarian = test system: IGROV1 ovarian
UACC-62 melanoma = test system: UACC-62 melanoma
SK-MEL-2 melanoma = test system: SK-MEL-2 melanoma
U251 CNS = test system: U251 CNS
NCI-H522 lung = test system: NCI-H522 lung
MALME-3M melanoma = test system: MALME-3M melanoma
HL-60(TB) leukemia = test system: HL-60(TB) leukemia
SF-539 CNS = test system: SF-539 CNS
ACHN renal = test system: ACHN renal
SNB-19 CNS = test system: SNB-19 CNS
MCF7 breast = test system: MCF7 breast
PC-3 prostate = test system: PC-3 prostate
SK-OV-3 ovarian = test system: SK-OV-3 ovarian
M14 melanoma = test system: M14 melanoma
NCI-H226 lung = test system: NCI-H226 lung
HT29 colon = test system: HT29 colon
HOP-62 NSCLC = test system: HOP-62 NSCLC
LOX IMVI melanoma = test system: LOX IMVI melanoma
UACC-257 melanoma = test system: UACC-257 melanoma

Q: Which results are given for Cc1ccc(-c2nc(C(Cl)Cl)nc3cc(-c4ccccc4)nn23)cc1?
A: TGI (RXF 393 renal): 24 µM; GI50 (OVCAR-8 ovarian): 15.3 µM; TGI (OVCAR-8 ovarian): 90.1 µM; GI50 (BT-549 breast): 30.7 µM; TGI (BT-549 breast): > 100 µM; GI50 (SF-268 CNS): 24.6 µM; TGI (SF-268 CNS): > 100 µM; GI50 (A549 NSCLC): 10 µM; TGI (A549 NSCLC): 28.1 µM; GI50 (MOLT-4 leukemia): 18.2 µM; TGI (MOLT-4 leukemia): 96.7 µM; GI50 (SK-MEL-28 melanoma): 27.2 µM; TGI (SK-MEL-28 melanoma): 74.6 µM; GI50 (SK-MEL-5 melanoma): > 100 µM; TGI (SK-MEL-5 melanoma): > 100 µM; GI50 (DU-145 prostate): 4.21 µM; TGI (DU-145 prostate): 29.7 µM; GI50 (COLO 205 colon): 10.1 µM; TGI (COLO 205 colon): 23.4 µM; GI50 (IGROV1 ovarian): 36.3 µM; TGI (IGROV1 ovarian): > 100 µM; GI50 (UACC-62 melanoma): 81.8 µM; TGI (UACC-62 melanoma): > 100 µM; GI50 (SK-MEL-2 melanoma): > 100 µM; TGI (SK-MEL-2 melanoma): > 100 µM; GI50 (U251 CNS): 9.5 µM; TGI (U251 CNS): 34.1 µM; GI50 (NCI-H522 lung): 14.5 µM; TGI (NCI-H522 lung): 42.8 µM; GI50 (MALME-3M melanoma): 23.3 µM; TGI (MALME-3M melanoma): 58.9 µM; GI50 (HL-60(TB) leukemia): 6.5 µM; TGI (HL-60(TB) leukemia): > 100 µM; GI50 (SF-539 CNS): 61.1 µM; TGI (SF-539 CNS): > 100 µM; GI50 (ACHN renal): 7.54 µM; TGI (ACHN renal): 31.8 µM; GI50 (SNB-19 CNS): 19.7 µM; TGI (SNB-19 CNS): > 100 µM; GI50 (MCF7 breast): 18.1 µM; TGI (MCF7 breast): > 100 µM; GI50 (PC-3 prostate): 23.7 µM; TGI (PC-3 prostate): > 100 µM; GI50 (SK-OV-3 ovarian): 20.9 µM; TGI (SK-OV-3 ovarian): 58.7 µM; GI50 (M14 melanoma): 20.6 µM; TGI (M14 melanoma): 50.2 µM; GI50 (NCI-H226 lung): 75.2 µM; TGI (NCI-H226 lung): > 100 µM; GI50 (HT29 colon): 7.41 µM; TGI (HT29 colon): 35.2 µM; GI50 (HOP-62 NSCLC): 16.5 µM; TGI (HOP-62 NSCLC): 62.3 µM; GI50 (LOX IMVI melanoma): 22.4 µM; TGI (LOX IMVI melanoma): > 100 µM; GI50 (UACC-257 melanoma): 35.3 µM; TGI (UACC-257 melanoma): > 100 µM
